In US20160151406A1, “COMBINATION CANCER THERAPY WITH C-MET INHIBITORS AND SYNTHETIC OLIGONUCLEOTIDES” (Mirna Therapeutics, Inc., priority 2014, published 2016):
Read-outs that look alike come from different tables or passages of the source.

Experiments:
Format in all cases: cell-based
C3A HCC cells = experiment: Single-agent cell proliferation (AlamarBlue), C3A; details: Homo sapiens, 72 h, drug alone, proliferation 3 days post drug treatment
Protocol: (§1) Cell culture: HCC cells were maintained in EMEM medium with 10% fetal bovine serum, except Huh7 were maintained in DMEM. All cells were maintained at 37° C. in a humidified of 95% air and 5% CO2.
(§2) miR-Rx34 and tivantinib and EMD1214063 treatment: To determine the IC50 value of each drug alone, 2,000 cells per well were seeded in a 96-well plate format and treated with either tivantinib or miR-Rx34 as follows. (i) miR-Rx34 was reverse-transfected in triplicates in a serial dilution (0.03-30 nM) using RNAiMax lipofectamine. As controls, cells were also transfected with RNAiMax alone (mock). Cells were incubated with AlamarBlue (Invitrogen) 6 days post transfection to determine cellular proliferation. Proliferation data were normalized to mock-transfected cells. (ii) Tivantinib or EMD1214063, prepared as a 10 mM stock solution in dimethyl sulfoxide (DMSO), was added to cells 3 days after seeding at a final concentration ranging from 0.1 to 100 μM for tivantinib and 0.01 and 10 μM for EMD1214063. Solvent alone (1% final DMSO) was added to cells in separate wells as a control. Three days thereafter, cellular proliferation was measured by AlamarBlue and normalized to the solvent control.
(§3) Statistical analysis: Statistical analysis was done using the Excel (Microsoft) and Graphpad software. Averages and standard deviations were calculated from triplicate experiments. […]

SK-Hep1 HCC cells = experiment: Single-agent cell proliferation (AlamarBlue), SK-Hep1; details: Homo sapiens, 72 h, drug alone, proliferation 3 days post drug treatment, read-out: EMD1214063 IC50
Protocol: as §1, §2, §3

Hep3b HCC cells = experiment: Single-agent cell proliferation (AlamarBlue), Hep3b; details: Homo sapiens, 72 h, drug alone, proliferation 3 days post drug treatment, read-out: Tivantinib IC50
Protocol: as §1, §2, §3

HepG2 HCC cells = experiment: Single-agent cell proliferation (AlamarBlue), HepG2; details: Homo sapiens, 72 h, drug alone, proliferation 3 days post drug treatment, read-out: Tivantinib IC50
Protocol: as §1, §2, §3

Huh7 HCC cells = experiment: Single-agent cell proliferation (AlamarBlue), Huh7; details: Homo sapiens, Huh-7, 72 h, drug alone, proliferation 3 days post drug treatment, read-out: Tivantinib IC50
Protocol: as §1, §2, §3

IC50 (C3A HCC cells; read-out: EMD1214063 IC50)	IC50 (SK-Hep1 HCC cells)	IC50 (Hep3b HCC cells)	IC50 (HepG2 HCC cells)	IC50 (C3A HCC cells; read-out: Tivantinib IC50)	IC50 (Huh7 HCC cells)	Compound
7 µM	6.7 µM					CN1CCC(COc2cnc(-c3cccc(Cn4nc(-c5cccc(C#N)c5)ccc4=O)c3)nc2)CC1 [EMD1214063, 3-(1-(3-(5-((1-methylpiperidin-4-yl)methoxy)pyrimidin-2-yl)benzyl)-1,6-dihydro-6-oxopyridazin-3-yl)benzonitrile]
		4.63 to 18.6 µM	8.99 to 25 µM	2.3 to 7.42 µM	1.5 to 3.32 µM	O=C1NC(=O)[C@@H](c2cn3c4c(cccc24)CCC3)[C@@H]1c1c[nH]c2ccccc12 [Tivantinib, (3R,4R)-3-(5,6-Dihydro-4H-pyrrolo[3,2,1-ij]quinolin-1-yl)-4-(1H-indol-3-yl)-2,5-pyrrolidinedione]
